In patent US11684581B2, “Drug and layered silicate composite with improved oral bioavailability, oral pharmacological composition containing the composite and method for producing the composite” (KOREA INSTITUTE OF GEOSCIENCE AND MINERAL RESOURCES, priority 2018, dated 2023):
In brackets after ≈: the same amount, converted by molar mass.

Tests used:
[1] = cited from earlier work
[2] = In vivo pharmacokinetics analysis after oral administration; conditions: rat, 10 mg/kg based on sorafenib
Description: In order to evaluate the absorption and disappearance rate of the drug during oral administration, a in vivo pharmacokinetics analysis was performed on rats. A femoral artery of the rat was cannulated with PESO tubes. Then, sorafenib suspension, and sorafenib and bentonite composite suspension as produced according to Present Example 7 were orally administered into the rat. Thereafter, the rat blood was collected through the PESO tube based on a time schedule and was centrifuged to obtain plasma. After the plasma samples were pretreated, the in-blood drug concentration was analyzed using a mass spectrometer. The dose was set to 10 mg/kg based on the amount of the sorafenib. The plasma was collected over 2 days.
FIG. 7 is a graph showing changes in concentration of a drug in a blood over time in oral administration of sorafenib suspension (●) and sorafenib and bentonite composite suspension (□).

[3] = Drug release (eruption) experiment in eruption solution, HPLC; assay type: physicochemical; conditions: 50 rpm
Description: Drug release experiments were conducted to confirm the release of the drug from the bentonite based on the surrounding environment type. Specifically, the sorafenib 800 μg and the bentonite composite produced under the process condition of Present Example 7 containing 800 μg of sorafenib were dispersed in 40 ml of an eruption solution respectively to form two dispersions. The, each dispersion was shaken at 37° C. at 50 rpm to effect eruption.
The eruption solution used in this experiment was embodied as each of a solution of 0.1 N HCl in water at pH 1.2 and 50 mM phosphate buffer at pH 7.4. Further, 0.5% (v/v) Tween 80 (Polyoxyethyelene Sorbitan Monooleate) was added to the eruption solution to dissolve the sorafenib sufficiently.
Then, the eruption solution was collected based on a time schedule by 0.4 mL, filtered and analyzed by a high performance liquid chromatography.

[4] = Solubility of sorafenib in mixed solvent (acetonitrile / 1 N hydrochloric acid / dimethyl sulfoxide); assay type: physicochemical; conditions: aqueous with cosolvent or surfactant or cyclodextrin; 15% acetonitrile, 83% 1 N hydrochloric acid, 2% dimethyl sulfoxide; read-out: solubility of sorafenib (dissolved concentration)
Description: In one example, the solubility of sorafenib when the ratio between acetonitrile and 1 N hydrochloric acid was adjusted while the dimethyl sulfoxide ratio in the total mixed solvent was fixed at 2% was measured. As a result, we dissolved the sorafenib at a concentration of 0.5 mg/mL while at a concentration of 15% acetonitrile and 83% of 1 N hydrochloric acid.

In the case of `CNC(=O)c1cc(Oc2ccc(NC(=O)Nc3ccc(Cl)c(C(F)(F)F)c3)cc2)ccn1` [Sorafenib, sorafenib], the In vivo half-life ([1]; background statement) is listed as 24 to 48 h, the “amount of the drug taken excreted in feces” value ([1]; oral, during about a week until steady-state) is listed as “More than 70%” and the AUC(0-inf) ([2]; plasma) is listed as 4850 ng·h/mL. The Cmax ([2]; plasma) was 100 ± 20 ng/mL, the MRT ([2]; plasma) was 20.5 h and the Tmax ([2]; plasma) was 6.67 h. For the same molecule, the half-life ([2]; plasma) was 28.2 ± 6.15 h, the AUC(0-t) ([2]; plasma collected over 2 days) was 3120 ng·h/mL and the “released amount of the sorafenib” value ([3]; 50 mM phosphate buffer pH 7.4, 0.5% (v/v) Tween 80, 37° C., 8 hours) was “below 30%”. For the same molecule, the “released amount of the sorafenib” value ([3]; 0.1 N HCl pH 1.2, 0.5% (v/v) Tween 80, 37° C., 8 hours stated for sorafenib alone) was “below 30%” and the solubility [4] was 500 µg/mL (≈ 1080 µM).
